# Test results from patent US5814488A (priority 1993, dated 1998).
# Read-outs that look alike come from different tables or passages of the source.
# What was measured:
# [1] = Nephrotoxicity to rat after i.m. administration; conditions: gentamicin at 150 MKD and 100 MKD from seventh day
# [2] = guinea pig, in vivo
# S. aureus = experiment: Comparison of MIC and MBC (Tables 5 and 6); assay type: cell-based; conditions: S. aureus, 31 strains
# Source text: (§1) […]. […] […]
# Klebsiella pneumoniae [3] = experiment: Comparison of MIC and MBC (Tables 5 and 6); assay type: cell-based
# Source text: as §1
# Escherichia coli [4] = experiment: Comparison of MIC and MBC (Tables 5 and 6); assay type: cell-based
# Source text: as §1
# Pseudomonas sp. [5] = experiment: Comparison of MIC and MBC (Tables 5 and 6); assay type: cell-based
# Source text: as §1
# Shigella = experiment: Comparison of MIC and MBC (Tables 5 and 6); assay type: cell-based
# Source text: as §1
# Streptococcus viridans = experiment: In vitro antibacterial activity against 1108 strains pathogenic bacteria (Table 4); assay type: cell-based; conditions: 27 strains
# Streptococcus faecalis = experiment: as above; assay type: cell-based; conditions: Enterococcus faecalis, 33 strains
# [6] = Chronic toxicity, rat i.p. 90 days
# Serratia sp. = experiment: In vitro antibacterial activity against 1108 strains pathogenic bacteria (Table 4); assay type: cell-based; conditions: 30 strains
# Enterobacter aerugenes = experiment: as above; assay type: cell-based
# Source text: as §1
# Klebsiella pneumoniae [7] = experiment: as above; assay type: cell-based
# Source text: as §1
# Salmonella typhi = experiment: as above; assay type: cell-based; conditions: Salmonella enterica
# Source text: as §1
# Proteus mirabilis = experiment: as above; assay type: cell-based; conditions: 60 strains
# Source text: as §1
# Escherichia coli [8] = experiment: as above; assay type: cell-based
# Source text: as §1
# Pseudomonas sp. [9] = experiment: as above; assay type: cell-based; conditions: 204 strains
# Source text: as §1
# Ciltrobacter sp. = experiment: as above; assay type: cell-based; conditions: 30 strains
# Source text: as §1
# Acinetobacter sp. = experiment: as above; assay type: cell-based; conditions: 27 strains
# Source text: as §1
# Enterobacter cloacae = experiment: as above; assay type: cell-based; conditions: 29 strains
# [10] = tested on: Methicillin resistant S. aureus; experiment: as above; assay type: cell-based; conditions: Staphylococcus aureus, 53 strains
# [11] = tested on: Staphylococcus epidermidis; experiment: as above; assay type: cell-based; conditions: 27 strains
# Shigella dysenteriae = experiment: as above; assay type: cell-based
# bacteria infected mice = experiment: In vivo therapeutic effect on bacteria infected mice; conditions: similar to those in vitro
# [12] = Acute toxicity, Kunming mice; conditions: versus netilmicin and GM
# Streptococcus pyogenes = experiment: In vitro antibacterial activity against 1108 strains pathogenic bacteria (Table 4); assay type: cell-based; conditions: 27 strains
# Staphylococcus arueus = experiment: as above; assay type: cell-based; conditions: 190 strains
# Streptococcus pneumoniae = experiment: as above; assay type: cell-based; conditions: 14 strains
# Haemophilus influenzae = experiment: as above; assay type: cell-based; conditions: 8 strains
# [13] = Table 6, 20 strains, read-out: MBC90
# [14] = Table 6, 20 strains, read-out: MBC range
# [15] = Table 6, Pseudomonas sp., 20 strains, read-out: MBC range
# [16] = Table 6, 10 strains, read-out: MBC range
# [17] = Enterobacter aerugenes, 27 strains
# [18] = Table 5, 20 strains, read-out: MBC50
# [19] = Table 5, 20 strains, read-out: MBC90
# [20] = Table 6, 20 strains, unit assumed
compound,measurement,setting,value
NCC[C@H](O)C(=O)N[C@@H]1C[C@H](N)[C@@H](O[C@H]2O[C@H](CN)[C@@H](O)[C@H](O)[C@H]2O)[C@H](O)[C@H]1O[C@H]1O[C@H](CO)[C@@H](O)[C@H](N)[C@H]1O [Amikacin],dead animals,[1],no dead
same,ABR threshold,[2],increases of ABR threshold were observed
same,auditory function,[2],nearly all the auditory function of the animals were lost
same,MBC,"S. aureus; Staphylococcus aureus, Table 6, read-out: MBC90",32 µg/mL
same,MBC range,"S. aureus; Table 6, in µg/mL (unit assumed)",0.125-128
same,MBC,Klebsiella pneumoniae [3]; [13],1 µg/mL
same,MBC,Klebsiella pneumoniae [3]; [14],0.125 to 2 µg/mL
same,MBC,Escherichia coli [4]; [13],2 µg/mL
same,MBC,Escherichia coli [4]; [14],0.25 to 8 µg/mL
same,MBC,"Pseudomonas sp. [5]; Table 6, Pseudomonas sp., 20 strains, read-out: MBC90",64 µg/mL
same,MBC,Pseudomonas sp. [5]; [15],1 to 64 µg/mL
same,MBC,"Shigella; Table 6, 10 strains, read-out: MBC90",0.5 µg/mL
same,MBC,Shigella; [16],0.25 to 1 µg/mL
CCNC1CC(N)C(OC2OC(CN)CCC2N)C(O)C1OC1OCC(C)(O)C(NC)C1O (stereo not shown),MIC50,Streptococcus viridans,1 µg/mL
same,MIC90,Streptococcus viridans,4 µg/mL
same,MIC,Streptococcus viridans; read-out: MIC range,0.062 to 4 µg/mL
same,MIC,Streptococcus viridans; read-out: Mode MIC,2 µg/mL
same,MIC50,Streptococcus faecalis,32 µg/mL
same,MIC90,Streptococcus faecalis,256 µg/mL
same,MIC,Streptococcus faecalis; read-out: MIC range,0.5 to 256 µg/mL
same,MIC,Streptococcus faecalis; read-out: Mode MIC,1 µg/mL
same,"chronic toxicity, comparison with MCR",[6],not greater than that of MCR
same,MIC50,Serratia sp.,0.5 µg/mL
same,MIC90,Serratia sp.,32 µg/mL
same,MIC range,Serratia sp.; in µg/mL (unit assumed),0.062-256
same,MIC,Serratia sp.; read-out: Mode MIC,0.5 µg/mL
same,MIC50,Enterobacter aerugenes; [17],0.25 µg/mL
same,MIC90,Enterobacter aerugenes; [17],16 µg/mL
same,MIC,"Enterobacter aerugenes; Enterobacter aerugenes, 27 strains, read-out: MIC range",0.062 to 32 µg/mL
same,MIC,"Enterobacter aerugenes; Enterobacter, read-out: Mode MIC",0.125 µg/mL
same,MIC50,Klebsiella pneumoniae [7],0.125 µg/mL
same,MIC90,Klebsiella pneumoniae [7]; 115 strains,8 µg/mL
same,MIC range,"Klebsiella pneumoniae [7]; 115 strains, in µg/mL (unit assumed)",0.062-128
same,MIC,Klebsiella pneumoniae [7]; read-out: Mode MIC,0.125 µg/mL
same,MIC50,Salmonella typhi,0.5 µg/mL
same,MIC90,Salmonella typhi,8 µg/mL
same,MIC,Salmonella typhi; read-out: MIC range,0.062 to 32 µg/mL
same,MIC,Salmonella typhi; read-out: Mode MIC,0.5 µg/mL
same,MIC50,Proteus mirabilis,0.5 µg/mL
same,MIC90,Proteus mirabilis,2 µg/mL
same,MIC range,Proteus mirabilis; in µg/mL (unit assumed),0.125-128
same,MIC,Proteus mirabilis; read-out: Mode MIC,0.5 µg/mL
same,MIC50,Escherichia coli [8]; 146 strains,0.25 µg/mL
same,MIC90,Escherichia coli [8]; 146 strains,16 µg/mL
same,MIC,"Escherichia coli [8]; 146 strains, read-out: Mode MIC",0.25 µg/mL
same,MIC,Escherichia coli [8]; read-out: MIC range,0.125 to 64 µg/mL
same,MIC50,Pseudomonas sp. [9],8 µg/mL
same,MIC90,Pseudomonas sp. [9],> 256 µg/mL
same,MIC,Pseudomonas sp. [9]; read-out: Mode MIC,8 µg/mL
same,MIC50,Ciltrobacter sp.,0.25 µg/mL
same,MIC90,Ciltrobacter sp.,16 µg/mL
same,MIC range,Ciltrobacter sp.; in µg/mL (unit assumed),0.125-128
same,MIC,Ciltrobacter sp.; read-out: Mode MIC,0.25 µg/mL
same,MIC50,Acinetobacter sp.,0.5 µg/mL
same,MIC90,Acinetobacter sp.,256 µg/mL
same,MIC range,Acinetobacter sp.; in µg/mL (unit assumed),0.125-256
same,MIC,Acinetobacter sp.; read-out: Mode MIC,0.25 µg/mL
same,MIC50,Enterobacter cloacae,2 µg/mL
same,MIC90,Enterobacter cloacae,64 µg/mL
same,MIC,Enterobacter cloacae; read-out: Mode MIC,0.25 µg/mL
same,MIC50,[10],8 µg/mL
same,MIC90,[10],32 µg/mL
same,MIC,[10]; read-out: MIC range,0.5 to 128 µg/mL
same,MIC,[10]; read-out: Mode MIC,8 µg/mL
same,dead animals,[1],no dead
same,MIC50,[11],0.31 µg/mL
same,MIC90,[11],1 µg/mL
same,MIC,[11]; read-out: MIC range,0.031 to 16 µg/mL
same,MIC,[11]; read-out: Mode MIC,0.031 µg/mL
same,MIC50,Shigella dysenteriae,0.25 µg/mL
same,MIC90,Shigella dysenteriae,0.5 µg/mL
same,MIC,Shigella dysenteriae; read-out: MIC range,0.125 to 64 µg/mL
same,MIC,Shigella dysenteriae; read-out: Mode MIC,0.25 µg/mL
same,inhibitive and germicide activities in vivo,bacteria infected mice,high inhibitive activities and germicide activities in vivo which are similar to those in vitro
same,"acute toxicity, comparison",[12],lower than that of netilmicin obviously and similar to that of GM
same,MBC,"S. aureus; Staphylococcus aureus, Table 5, read-out: MBC50",0.5 µg/mL
same,MBC,"S. aureus; Staphylococcus aureus, Table 5, read-out: MBC90",2 µg/mL
same,MIC50,"S. aureus; Staphylococcus aureus, Table 5, read-out: MIC50",0.062 µg/mL
same,MIC90,"S. aureus; Staphylococcus aureus, Table 5, read-out: MIC90",0.25 µg/mL
same,MBC,"S. aureus; Staphylococcus aureus, Table 6, read-out: MBC range",0.062 to 4 µg/mL
same,MBC90,"S. aureus; Table 6, unit assumed",2 µg/mL
same,MIC50,Klebsiella pneumoniae [3],0.125 µg/mL
same,MIC90,Klebsiella pneumoniae [3],0.125 µg/mL
same,MBC,Klebsiella pneumoniae [3]; [18],0.25 µg/mL
same,MBC,Klebsiella pneumoniae [3]; [19],0.5 µg/mL
same,MBC,Klebsiella pneumoniae [3]; [14],0.062 to 1 µg/mL
same,MBC90,Klebsiella pneumoniae [3]; [20],0.5 µg/mL
same,MIC50,Escherichia coli [4],0.125 µg/mL
same,MBC,Escherichia coli [4]; [18],0.25 µg/mL
same,MBC,Escherichia coli [4]; [19],1 µg/mL
same,MIC90,"Escherichia coli [4]; Table 5, 20 strains, read-out: MIC90",0.5 µg/mL
same,MBC90,Escherichia coli [4]; [20],1 µg/mL
same,MBC,Escherichia coli [4]; read-out: MBC range,0.125 to 8 µg/mL
same,MIC50,Pseudomonas sp. [5]; Pseudomonas,1 µg/mL
same,MIC90,Pseudomonas sp. [5]; Pseudomonas,4 µg/mL
same,MBC,"Pseudomonas sp. [5]; Pseudomonas, read-out: MBC50",2 µg/mL
same,MBC,"Pseudomonas sp. [5]; Pseudomonas, read-out: MBC90",8 µg/mL
same,MBC,Pseudomonas sp. [5]; [15],0.25 to 16 µg/mL
same,MBC90,"Pseudomonas sp. [5]; Table 6, Pseudomonas sp., 20 strains, unit assumed",8 µg/mL
same,MIC50,"Shigella; Table 5, 10 strains",0.062 µg/mL
same,MBC,"Shigella; Table 5, 10 strains, read-out: MBC50",0.5 µg/mL
same,MBC,"Shigella; Table 5, 10 strains, read-out: MBC90",1 µg/mL
same,MIC90,"Shigella; Table 5, 10 strains, read-out: MIC90",0.125 µg/mL
same,MBC,Shigella; [16],0.125 to 1 µg/mL
same,MBC90,"Shigella; Table 6, 10 strains, unit assumed",1 µg/mL
same,MIC50,Streptococcus pyogenes,1 µg/mL
same,MIC90,Streptococcus pyogenes,32 µg/mL
same,MIC,Streptococcus pyogenes; read-out: MIC range,0.25 to 128 µg/mL
same,MIC,Streptococcus pyogenes; read-out: Mode MIC,1 µg/mL
same,MIC50,Staphylococcus arueus,1 µg/mL
same,MIC90,Staphylococcus arueus,16 µg/mL
same,MIC range,Staphylococcus arueus; in µg/mL (unit assumed),0.031-128
same,MIC,Staphylococcus arueus; read-out: Mode MIC,0.062 µg/mL
same,MIC50,Streptococcus pneumoniae,0.25 µg/mL
same,MIC90,Streptococcus pneumoniae,4 µg/mL
same,MIC,Streptococcus pneumoniae; read-out: MIC range,0.031 to 16 µg/mL
same,MIC,Streptococcus pneumoniae; read-out: Mode MIC,0.031 µg/mL
same,MIC50,Haemophilus influenzae,0.031 µg/mL
same,MIC90,Haemophilus influenzae,4 µg/mL
same,MIC,Haemophilus influenzae; read-out: MIC range,0.031 to 4 µg/mL
same,MIC,Haemophilus influenzae; read-out: Mode MIC,0.031 µg/mL
